Bridge positions count the residues as written; N and C are the ends. Ends that are not written are not given here.
System: patients with chronic idiopathic constipation (CIC)
Assay: Second phase 3 CIC trial: CSBM weekly responders by week
Format: in vivo, human
Conditions: MRA
Source text: Both trials include a two-week pre-treatment baseline period, a 12-week treatment period, and a two-week post-treatment period. The phase 3 CIC program was designed to support regulatory submission in the U. S.
The primary endpoint for both trials is the proportion of durable overall responders (%), which is the current regulatory endpoint required for U.S. approval in CIC. The FDA has defined a durable overall responder as a patient who fulfills both ≧3 complete spontaneous bowel movements (CSBMs) per week plus an increase of ≧1 CSBM from baseline in the same week, for 9 out of the 12 treatment weeks. In addition, the same patient must be an overall responder for at least 3 of the last 4 treatment weeks in order to be considered a durable overall responder.
Patients were selected using Rome 3 criteria modified for CIC and had (1) fewer than 3 defecations per week, (2) loose stools occurring rarely without laxatives, (3) inadequate criteria for irritable bowel syndrome with constipation (IBS-C), and (4) at least two of the following applied to at least 25% of defecations: (a) straining during evacuation, (b) lumpy or hard stools, (c) sensation of anorectal obstruction or blockage. Rome 3 requires patients to fulfill the criteria for the last 3 months with symptom onset at least 6 months prior to diagnosis.

[1] = Week 6, 3 mg, ITT Population-Excluding Duplicate Patients
[2] = Week 6, 6 mg, ITT Population-Excluding Duplicate Patients
[3] = Week 6, Active Combined, ITT Population-Excluding Duplicate Patients
[4] = Week 6, Active Combined, ITT Population
[5] = Week 7, 3 mg, ITT Population-Excluding Duplicate Patients
[6] = Week 7, 6 mg, ITT Population-Excluding Duplicate Patients
[7] = Week 7, Active Combined, ITT Population-Excluding Duplicate Patients
[8] = Week 7, Active Combined, ITT Population
[9] = Week 8, 3 mg, ITT Population-Excluding Duplicate Patients
[10] = Week 8, 6 mg, ITT Population-Excluding Duplicate Patients
[11] = Week 8, Active Combined, ITT Population-Excluding Duplicate Patients
[12] = Week 8, Active Combined, ITT Population
[13] = Week 9, 3 mg, ITT Population-Excluding Duplicate Patients
[14] = Week 9, 6 mg, ITT Population-Excluding Duplicate Patients

## Asn^1-Asp^2-Glu^3-Cys^4-Glu^5-Leu^6-Cys^7-Val^8-Asn^9-Val^10-Ala^11-Cys^12-Thr^13-Gly^14-Cys^15-Leu^16 (NDECELCVNVACTGCL; disulfide 4-12, 7-15) [Plecanatide, uroguanylin analogue, guanylate cyclase-C agonist; (C4:C12, C7:C15) bicycle peptide]
Week 5, Active Combined, ITT Population
  Non-Responders, n (%): 605 (67.8) n (%)
Week 6, 3 mg minus placebo, All Randomized (includes Duplicate Patients)
  Difference in Proportions (adjusted): 0.100
Week 6, 3 mg vs placebo, All Randomized (includes Duplicate Patients)
  Odds Ratio (adjusted): 0.593
Week 6, 3 mg, ITT Population
  CSBM Weekly Responders, n (%): 137 (30.9) n (%)
  Non-Responders, n (%): 306 (69.1) n (%)
[1]
  CSBM Weekly Responders, n (%): 136 (31.3) n (%)
  Non-Responders, n (%): 298 (68.7) n (%)
Week 6, 6 mg minus placebo, All Randomized (includes Duplicate Patients)
  Difference in Proportions (adjusted): 0.110
Week 6, 6 mg vs placebo, All Randomized (includes Duplicate Patients)
  Odds Ratio (adjusted): 0.566
Week 6, 6 mg, ITT Population
  CSBM Weekly Responders, n (%): 146 (32.5) n (%)
  Non-Responders, n (%): 303 (67.5) n (%)
[2]
  CSBM Weekly Responders, n (%): 146 (33.0) n (%)
  Non-Responders, n (%): 297 (67.0) n (%)
Week 6, 3 mg minus placebo, ITT Population-Excluding Duplicate Patients
  Difference in Proportions (adjusted): 0.096
Week 6, 3 mg minus placebo, ITT Population
  Difference in Proportions (adjusted): 0.093
Week 6, 3 mg vs placebo, ITT Population-Excluding Duplicate Patients
  Odds Ratio (adjusted): 0.610
Week 6, 3 mg vs placebo, ITT Population
  Odds Ratio (adjusted): 0.615
Week 6, 6 mg minus placebo, ITT Population-Excluding Duplicate Patients
  Difference in Proportions (adjusted): 0.112
Week 6, 6 mg minus placebo, ITT Population
  Difference in Proportions (adjusted): 0.109
Week 6, 6 mg vs placebo, ITT Population-Excluding Duplicate Patients
  Odds Ratio (adjusted): 0.565
Week 6, 6 mg vs placebo, ITT Population
  Odds Ratio (adjusted): 0.571
[3]
  CSBM Weekly Responders, n (%): 282 (32.2) n (%)
  Non-Responders, n (%): 595 (67.8) n (%)
[4]
  CSBM Weekly Responders, n (%): 283 (31.7) n (%)
  Non-Responders, n (%): 609 (68.3) n (%)
Week 7, 3 mg minus placebo, All Randomized (includes Duplicate Patients)
  Difference in Proportions (adjusted): 0.091
Week 7, 3 mg vs placebo, All Randomized (includes Duplicate Patients)
  Odds Ratio (adjusted): 0.634
Week 7, 3 mg, ITT Population
  CSBM Weekly Responders, n (%): 145 (32.7) n (%)
  Non-Responders, n (%): 298 (67.3) n (%)
[5]
  CSBM Weekly Responders, n (%): 144 (33.2) n (%)
  Non-Responders, n (%): 290 (66.8) n (%)
Week 7, 6 mg minus placebo, All Randomized (includes Duplicate Patients)
  Difference in Proportions (adjusted): 0.075
Week 7, 6 mg vs placebo, All Randomized (includes Duplicate Patients)
  Odds Ratio (adjusted): 0.681
Week 7, 6 mg, ITT Population
  CSBM Weekly Responders, n (%): 140 (31.2) n (%)
  Non-Responders, n (%): 309 (68.8) n (%)
[6]
  CSBM Weekly Responders, n (%): 140 (31.6) n (%)
  Non-Responders, n (%): 303 (68.4) n (%)
Week 7, 3 mg minus placebo, ITT Population-Excluding Duplicate Patients
  Difference in Proportions (adjusted): 0.089
Week 7, 3 mg minus placebo, ITT Population
  Difference in Proportions (adjusted): 0.085
Week 7, 3 mg vs placebo, ITT Population-Excluding Duplicate Patients
  Odds Ratio (adjusted): 0.645
Week 7, 3 mg vs placebo, ITT Population
  Odds Ratio (adjusted): 0.659
Week 7, 6 mg minus placebo, ITT Population-Excluding Duplicate Patients
  Difference in Proportions (adjusted): 0.074
Week 7, 6 mg minus placebo, ITT Population
  Difference in Proportions (adjusted): 0.069
Week 7, 6 mg vs placebo, ITT Population-Excluding Duplicate Patients
  Odds Ratio (adjusted): 0.693
Week 7, 6 mg vs placebo, ITT Population
  Odds Ratio (adjusted): 0.707
[7]
  CSBM Weekly Responders, n (%): 284 (32.4) n (%)
  Non-Responders, n (%): 593 (67.6) n (%)
[8]
  CSBM Weekly Responders, n (%): 285 (32.0) n (%)
  Non-Responders, n (%): 607 (68.0) n (%)
Week 8, 3 mg minus placebo, All Randomized (includes Duplicate Patients)
  Difference in Proportions (adjusted): 0.076
Week 8, 3 mg vs placebo, All Randomized (includes Duplicate Patients)
  Odds Ratio (adjusted): 0.687
Week 8, 3 mg, ITT Population
  CSBM Weekly Responders, n (%): 145 (32.7) n (%)
  Non-Responders, n (%): 298 (67.3) n (%)
[9]
  CSBM Weekly Responders, n (%): 144 (33.2) n (%)
  Non-Responders, n (%): 290 (66.8) n (%)
Week 8, 6 mg minus placebo, All Randomized (includes Duplicate Patients)
  Difference in Proportions (adjusted): 0.067
Week 8, 6 mg vs placebo, All Randomized (includes Duplicate Patients)
  Odds Ratio (adjusted): 0.716
Week 8, 6 mg, ITT Population
  CSBM Weekly Responders, n (%): 144 (32.1) n (%)
  Non-Responders, n (%): 305 (67.9) n (%)
[10]
  CSBM Weekly Responders, n (%): 143 (32.3) n (%)
  Non-Responders, n (%): 300 (67.7) n (%)
Week 8, 3 mg minus placebo, ITT Population-Excluding Duplicate Patients
  Difference in Proportions (adjusted): 0.073
Week 8, 3 mg minus placebo, ITT Population
  Difference in Proportions (adjusted): 0.069
Week 8, 3 mg vs placebo, ITT Population-Excluding Duplicate Patients
  Odds Ratio (adjusted): 0.703
Week 8, 3 mg vs placebo, ITT Population
  Odds Ratio (adjusted): 0.717
Week 8, 6 mg minus placebo, ITT Population-Excluding Duplicate Patients
  Difference in Proportions (adjusted): 0.064
Week 8, 6 mg minus placebo, ITT Population
  Difference in Proportions (adjusted): 0.062
Week 8, 6 mg vs placebo, ITT Population-Excluding Duplicate Patients
  Odds Ratio (adjusted): 0.731
Week 8, 6 mg vs placebo, ITT Population
  Odds Ratio (adjusted): 0.738
[11]
  CSBM Weekly Responders, n (%): 287 (32.7) n (%)
  Non-Responders, n (%): 590 (67.3) n (%)
[12]
  CSBM Weekly Responders, n (%): 289 (32.4) n (%)
  Non-Responders, n (%): 603 (67.6) n (%)
Week 9, 3 mg minus placebo, All Randomized (includes Duplicate Patients)
  Difference in Proportions (adjusted): 0.084
Week 9, 3 mg vs placebo, All Randomized (includes Duplicate Patients)
  Odds Ratio (adjusted): 0.656
Week 9, 3 mg, ITT Population
  CSBM Weekly Responders, n (%): 147 (33.2) n (%)
  Non-Responders, n (%): 296 (66.8) n (%)
[13]
  CSBM Weekly Responders, n (%): 146 (33.6) n (%)
  Non-Responders, n (%): 288 (66.4) n (%)
Week 9, 6 mg minus placebo, All Randomized (includes Duplicate Patients)
  Difference in Proportions (adjusted): 0.073
Week 9, 6 mg vs placebo, All Randomized (includes Duplicate Patients)
  Odds Ratio (adjusted): 0.691
Week 9, 6 mg, ITT Population
  CSBM Weekly Responders, n (%): 141 (31.4) n (%)
  Non-Responders, n (%): 308 (68.6) n (%)
[14]
  CSBM Weekly Responders, n (%): 140 (31.6) n (%)
  Non-Responders, n (%): 303 (68.4) n (%)
Week 9, 3 mg minus placebo, ITT Population-Excluding Duplicate Patients
  Difference in Proportions (adjusted): 0.082
Week 9, 3 mg minus placebo, ITT Population
  Difference in Proportions (adjusted): 0.082
Week 9, 3 mg vs placebo, ITT Population-Excluding Duplicate Patients
  Odds Ratio (adjusted): 0.673
Week 9, 3 mg vs placebo, ITT Population
  Odds Ratio (adjusted): 0.67
Week 9, 6 mg minus placebo, ITT Population-Excluding Duplicate Patients
  Difference in Proportions (adjusted): 0.062
Week 9, 6 mg minus placebo, ITT Population
  Difference in Proportions (adjusted): 0.065
Week 9, 6 mg vs placebo, ITT Population-Excluding Duplicate Patients
  Odds Ratio (adjusted): 0.738

From patent publication US20160367623A1, “AGONISTS OF GUANYLATE CYCLASE USEFUL FOR THE TREATMENT OF GASTROINTESTINAL DISORDERS, INFLAMMATION, CANCER AND OTHER DISORDERS” (priority 2015, published 2016)
